{
  "source": "patent US20230218675A1",
  "about": "“EXOSOMES ISOLATED FROM DERMAL PAPILLA PROGENITOR CELLS, AND USE THEREOF” (CELLPARK GLOBAL, priority 2020, published 2023)",
  "system": "human hair follicles",
  "test": "Human hair follicle organ culture, hair follicle length growth evaluation 1",
  "format": "cell-based",
  "conditions": "for 6 days; exosomes 1.0×10^9 particles, minoxidil 1 μM",
  "experimental": "In order to evaluate effects of the exosomes of the present invention on human hair follicle growth, a human hair follicle organ culture test (ex vivo hair follicle organ culture) was conducted. More specifically, scalp tissues were isolated into the unit of hair follicles, and the remaining hair follicles were used after cutting the part below the sebaceous gland of the isolated hair follicles. The prepared hair follicles were treated with Examples 1 and 2, and minoxidil as a positive control, respectively, and lengths of the hair growing on the 3rd and 6th days were measured, followed by comparing the measured results to the negative control in order to evaluate a length growth and a growth cycle of human hair follicles. […] The lengths of the hair follicles grown on the 3rd and 6th days of the culture, respectively, were measured using a microscope ruler.",
  "data": [
    {"compound": "Nc1cc(N2CCCCC2)nc(N)[n+]1[O-]", "note": "[minoxidil]", "values": [
      {"measurement": "growth of hair (hair follicle length)", "result": "about 1.5 mm"}
    ]}
  ]
}
